In brackets after ≈: the same amount, converted by molar mass.
Key:
[1] = test system: individual Aspergillus spp. (Table 15, species not named); assay: MIC testing (CLSI M38-A2), Table 15; type: cell-based; details: Aspergillus sp. of Table 15, caspofungin read as MEC
C. krusei strains = assay: MIC testing (CLSI M27-A3); type: cell-based
Candida albicans [2] = assay: MFC determination; type: cell-based; details: for MFC Range: in µg/mL
Penicillium strains = assay: MIC testing (CLSI M38-A2); type: cell-based, Penicillium spp.
C. glabrata strains [3] = assay: MIC testing (CLSI M27-A3); type: cell-based
Cr. neoformans strains = assay: MIC testing (CLSI M27-A3, YNB, 72 h); type: cell-based, Cryptococcus neoformans
all Candida strains [4] = assay: MIC testing (CLSI M27-A3), summary; type: cell-based
C. albicans SC5314 = assay: In vitro activity (MIC) against the infecting strain, Example 18; type: cell-based, Candida albicans
Candida albicans [5] = assay: MIC testing (CLSI M27-A3); type: cell-based; details: for MIC Range: in µg/mL
[6] = test system: individual Aspergillus spp. (Table 14, species not named); assay: MIC testing (CLSI M38-A2), Table 14; type: cell-based; details: Aspergillus sp. of Table 14, caspofungin read as MEC
all Candida strains [7] = assay: MFC determination, summary; type: cell-based
C. tropicalis [8] = assay: MIC testing (CLSI M27-A3); type: cell-based
A. fumigatus AF91 = assay: In vitro activity (MIC) against the infecting strain, Example 17; type: cell-based, Aspergillus fumigatus
Description: Minimum Inhibitory Concentration: MIC testing was performed according to the Clinical and Laboratory Standards Institute (CLSI) M27-A3 and M38-A2 standards for the susceptibility testing of yeasts and filamentous fungi, respectively (Cryptococcus isolates were incubated for 72 h). For yeast strains, the incubation temperature and time were 35° C. and 24-48 h, respectively, and the inoculum size was 0.5-2.5×10^3 CFU/ml. For filamentous strains, the inoculum size was 0.4-5×10^4 CFU/ml, and the incubation time was strain and drug specific. RPMI 1640 was the test medium throughout, with the exception of the use of YNB for Cryptococcus. Inhibition endpoints for compound 1A were recorded at 50% and 100% after both 24 h and 48 h incubation; caspofungin results against Aspergillus strains were read as minimum effective concentrations (MEC), the lowest concentration that leads to small, rounded, compact growth as compared to the confluent growth of the control.

[9] = test system: individual Aspergillus spp. (Table 12, species not named); assay: MIC testing (CLSI M38-A2), Table 12; type: cell-based; details: Aspergillus sp. of Table 12, caspofungin read as MEC
[10] = test system: Fusarium strains (Table 18); assay: MIC testing (CLSI M38-A2), Table 18; type: cell-based, Fusarium spp.
Fusarium strains = assay: MIC testing (CLSI M38-A2), Table 17; type: cell-based, Fusarium spp.; details: Fusarium strains (Table 17)
C. parapsilosis = assay: MIC testing (CLSI M27-A3); type: cell-based
C. glabrata strains [11] = assay: MFC determination; type: cell-based
[12] = test system: individual Aspergillus spp. (Table 13, species not given); assay: MIC testing (CLSI M38-A2), Table 13; type: cell-based; details: Aspergillus sp. of Table 13, caspofungin read as MEC
[13] = test system: individual Aspergillus spp. (Table 14, species not named); assay: MFC determination, Table 14; type: cell-based; details: Aspergillus sp. of Table 14
[14] = test system: Blastomyces dermatitidis, Coccidioides immitis, and Histoplasma capsulatum strains; type: cell-based; details: dimorphic fungal isolates; in µg/mL
C. tropicalis [15] = assay: MFC determination; type: cell-based
[16] = test system: individual Aspergillus spp. (Table 12, species not named); assay: MFC determination, Table 12; type: cell-based; details: Aspergillus sp. of Table 12
[17] = test system: all Aspergillus strains tested; assay: MIC testing (CLSI M38-A2), summary; type: cell-based; details: caspofungin read as MEC
[18] = test system: all Aspergillus strains tested; assay: MFC determination, summary; type: cell-based
[19] = Fluconazole-resistant C. albicans n = 7
[20] = Fluconazole-susceptible C. albicans n = 13
[21] = C. tropicalis strains, in µg/mL

`C[C@@H]1[C@H](O)[C@@H](C)/C=C/C=C/C=C/C=C/C=C/C=C/C=C/[C@H](O[C@@H]2O[C@H](C)[C@@H](O)[C@H](N)[C@@H]2O)C[C@@H]2O[C@](O)(C[C@@H](O)C[C@@H](O)[C@H](O)CC[C@@H](O)C[C@@H](O)CC(=O)O[C@H]1C)C[C@H](O)[C@H]2C(=O)O` [Amphotericin B] was tested, and the “MIC Range” value ([1]; in µg/mL) was 0.25-16, the MIC50 ([1]; inhibits 50% of strains) was 8 µg/mL (≈ 8.66 µM) and the MIC90 ([1]; inhibits 90% of strains) was 8 µg/mL (≈ 8.66 µM). For the same compound, the “MIC Range” value (C. krusei strains; C. krusei strains, in µg/mL) was 0.5-1, the MIC50 (C. krusei strains; C. krusei, inhibits 50% of strains) was 0.5 µg/mL (≈ 0.541 µM) and the MIC90 (C. krusei strains; C. krusei, inhibits 90% of strains) was 1 µg/mL (≈ 1.08 µM). For the same compound, the “MFC Range” value (Candida albicans [2]; [19]) was 0.5-1, the “MFC Range” value (Candida albicans [2]; [20]) was 0.125-1 and the MFC50 (Candida albicans [2]; Fluconazole-susceptible C. albicans n = 13, kills 50% of strains) was 0.25 µg/mL (≈ 0.271 µM). The MFC90 (Candida albicans [2]; Fluconazole-susceptible C. albicans n = 13, kills 90% of strains) was 1 µg/mL (≈ 1.08 µM), the “MIC Range” value (Penicillium strains; Penicillium strains, in µg/mL) was 0.5-4 and the MIC50 (Penicillium strains; Penicillium, inhibits 50% of strains) was 1 µg/mL (≈ 1.08 µM). For the same compound, the MIC90 (Penicillium strains; Penicillium, inhibits 90% of strains) was 2 µg/mL (≈ 2.16 µM), the “MIC Range” value (C. glabrata strains [3]; C. glabrata strains, in µg/mL) was 0.125-1 and the MIC50 (C. glabrata strains [3]; C. glabrata, inhibits 50% of strains) was 0.5 µg/mL (≈ 0.541 µM). The MIC90 (C. glabrata strains [3]; C. glabrata, inhibits 90% of strains) was 0.5 µg/mL (≈ 0.541 µM), the “MIC Range” value (Cr. neoformans strains; Cr. neoformans strains, 72 h, in µg/mL) was 0.06-1 and the MIC50 (Cr. neoformans strains; Cr. neoformans, inhibits 50% of strains) was 0.25 µg/mL (≈ 0.271 µM). The MIC90 (Cr. neoformans strains; Cr. neoformans, inhibits 90% of strains) was 0.5 µg/mL (≈ 0.541 µM), the “MIC Range” value (all Candida strains [4]; in µg/mL) was 0.125-1 and the MIC50 (all Candida strains [4]; inhibits 50% of strains) was 0.5 µg/mL (≈ 0.541 µM). The MIC90 (all Candida strains [4]; inhibits 90% of strains) was 0.5 µg/mL (≈ 0.541 µM), the MIC (C. albicans SC5314) was 0.125 µg/mL (≈ 0.135 µM) and the “MIC Range” value (Candida albicans [5]; [19]) was 0.25-1. The “MIC Range” value (Candida albicans [5]; [20]) was 0.125-0.5, the MIC50 (Candida albicans [5]; Fluconazole-susceptible C. albicans n = 13, inhibits 50% of strains) was 0.25 µg/mL (≈ 0.271 µM) and the MIC90 (Candida albicans [5]; Fluconazole-susceptible C. albicans n = 13, inhibits 90% of strains) was 0.5 µg/mL (≈ 0.541 µM). For the same compound, the “MIC Range” value ([6]; in µg/mL) was 0.25-2, the MIC50 ([6]; inhibits 50% of strains) was 1 µg/mL (≈ 1.08 µM) and the MIC90 ([6]; inhibits 90% of strains) was 1 µg/mL (≈ 1.08 µM). The “MFC Range” value (all Candida strains [7]; in µg/mL) was 0.125-2, the MFC50 (all Candida strains [7]; kills 50% of strains) was 0.5 µg/mL (≈ 0.541 µM) and the MFC90 (all Candida strains [7]; kills 90% of strains) was 1 µg/mL (≈ 1.08 µM). For the same compound, the “MIC Range” value (C. tropicalis [8]; [21]) was 0.25-0.5, the MIC50 (C. tropicalis [8]; C. tropicalis, inhibits 50% of strains) was 0.25 µg/mL (≈ 0.271 µM) and the MIC90 (C. tropicalis [8]; C. tropicalis, inhibits 90% of strains) was 0.5 µg/mL (≈ 0.541 µM). The MIC (A. fumigatus AF91) was 2 µg/mL (≈ 2.16 µM), the “MIC Range” value ([9]; in µg/mL) was 1-8 and the MIC50 ([9]; inhibits 50% of strains) was 8 µg/mL (≈ 8.66 µM). The MIC90 ([9]; inhibits 90% of strains) was 8 µg/mL (≈ 8.66 µM), the MIC50 ([10]; inhibits 50% of strains) was 0.5 µg/mL (≈ 0.541 µM) and the MIC90 ([10]; inhibits 90% of strains) was 2 µg/mL (≈ 2.16 µM). For the same compound, the “MIC Range” value (Fusarium strains; in µg/mL) was 0.5-2, the MIC50 (Fusarium strains; inhibits 50% of strains) was 1 µg/mL (≈ 1.08 µM) and the MIC90 (Fusarium strains; inhibits 90% of strains) was 2 µg/mL (≈ 2.16 µM). For the same compound, the “MIC Range” value (C. parapsilosis; C. parapsilosis strains, in µg/mL) was 0.125-1, the MIC50 (C. parapsilosis; C. parapsilosis, inhibits 50% of strains) was 0.25 µg/mL (≈ 0.271 µM) and the MIC90 (C. parapsilosis; C. parapsilosis, inhibits 90% of strains) was 0.5 µg/mL (≈ 0.541 µM). For the same compound, the “MFC Range” value (C. glabrata strains [11]; C. glabrata strains, in µg/mL) was 0.5-1, the MFC50 (C. glabrata strains [11]; C. glabrata, kills 50% of strains) was 0.5 µg/mL (≈ 0.541 µM) and the MFC90 (C. glabrata strains [11]; C. glabrata, kills 90% of strains) was 1 µg/mL (≈ 1.08 µM). The “MIC Range” value ([12]; in µg/mL) was 1-2, the MIC50 ([12]; inhibits 50% of strains) was 1 µg/mL (≈ 1.08 µM) and the MIC90 ([12]; inhibits 90% of strains) was 2 µg/mL (≈ 2.16 µM). For the same compound, the MFC50 ([13]; kills 50% of strains) was 2 µg/mL (≈ 2.16 µM), the MFC90 ([13]; kills 90% of strains) was greater than 8 µg/mL and the “MIC Range” value [14] was <0.03-0.125. The “MFC Range” value (C. tropicalis [15]; [21]) was 0.25-1, the MFC50 (C. tropicalis [15]; C. tropicalis, kills 50% of strains) was 0.5 µg/mL (≈ 0.541 µM) and the MFC90 (C. tropicalis [15]; C. tropicalis, kills 90% of strains) was 1 µg/mL (≈ 1.08 µM). For the same compound, the MFC50 ([16]; kills 50% of strains) was 8 µg/mL (≈ 8.66 µM), the MFC90 ([16]; kills 90% of strains) was greater than 32 µg/mL and the “MIC Range” value ([17]; in µg/mL) was 0.25-16. It also gave an MIC50 ([17]; inhibits 50% of strains) of 1 µg/mL (≈ 1.08 µM), an MIC90 ([17]; inhibits 90% of strains) of 8 µg/mL (≈ 8.66 µM) and an MFC50 ([18]; kills 50% of strains) greater than 8 µg/mL. The MFC90 ([18]; kills 90% of strains) was greater than 8 µg/mL.
